Key:
CYP1 = conditions: cited from earlier work
CYP1A1 = molecular target: T1, CYP1A1 (Homo sapiens, UniProt P04798); test: in vitro; conditions: pH 7.4, CYP1A1 enzyme activity (%), MNF 2.5 µM, positive control
T1 sequence (P04798 1-512): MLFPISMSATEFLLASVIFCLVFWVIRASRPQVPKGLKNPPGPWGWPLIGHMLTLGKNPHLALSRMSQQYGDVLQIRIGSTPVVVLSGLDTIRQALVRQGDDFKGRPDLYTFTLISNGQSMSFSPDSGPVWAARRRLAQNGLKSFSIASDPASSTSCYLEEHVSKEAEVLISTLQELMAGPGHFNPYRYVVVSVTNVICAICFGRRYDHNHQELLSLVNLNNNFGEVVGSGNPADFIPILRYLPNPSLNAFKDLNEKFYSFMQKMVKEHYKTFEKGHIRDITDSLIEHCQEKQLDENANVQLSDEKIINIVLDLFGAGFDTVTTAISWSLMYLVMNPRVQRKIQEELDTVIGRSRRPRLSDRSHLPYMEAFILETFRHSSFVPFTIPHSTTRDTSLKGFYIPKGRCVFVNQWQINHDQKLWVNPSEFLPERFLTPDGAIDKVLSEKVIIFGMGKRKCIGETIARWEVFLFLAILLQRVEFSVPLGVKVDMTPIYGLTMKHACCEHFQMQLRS
Experimental: The ethoxyresorufin deethylase (EROD) assay was performed using recombinant human CYP1A1 to determine TnP-mediated inhibition of CYP1A1 enzyme activity according to Wincent et al. [47], with minor changes. In brief, 2.5 nM CYP1A1 was pre-incubated with different concentrations of TnP in Tris-HCl buffer (0.1 M, pH 7.4) with EDTA (1 mM) at 37 °C for 3 min followed by the addition of ethoxyresorufin (0.1 μM) and NADPH (0.4 mM). Formation of resorufin was quantified in triplicates using a Tecan Infinite F200 multiwell plate reader (Tecan Group Ltd., Männedorf, Switzerland) with the excitation/emission wavelengths of 530/590 nm every 4 s for 2 min. The enzyme activity was determined by comparing the rate of resorufin formation compared to the vehicle control DMSO. The TnP concentration causing 50% inhibition of EROD activity (IC50) was estimated by nonlinear dose–response inhibition analysis using GraphPad Prism 9.1 (GraphPad Software, San Diego, CA, USA).
All the concentration were read at least in triplicate. Dimethyl sulfoxide – DMSO was tested
as negative control, and 3’-methoxy-4’-nitroflavone – MNF as positive control.

[1] = test system: (DOX)-induced cardiotoxicity; conditions: zebrafish; cited from earlier work
From the text: In addition to its implication in the resolution of inflammation and tissue injury, Asnani et al. recently concluded that inhibition of CYP1 was protective of (DOX)-induced cardiotoxicity.

In the case of `O=Cc1c2c(cc3c1=Nc1ccccc1-3)=Nc1ccccc1-2` [FICZ], the clearance dependence (CYP1) is given as “clearance is dependent on CYP1”.
`COc1cc(-c2cc(=O)c3ccccc3o2)ccc1[N+](=O)[O-]` [MNF] showed an activity (CYP1A1; replicate I) of 1.54%, an activity (CYP1A1; replicate II) of 1.54% and an activity (CYP1A1; replicate III) of 1.71%. The activity (CYP1A1; replicate IV) was 1.67%, the activity (CYP1A1; replicate IX) was 0.51% and the activity (CYP1A1; replicate V) was 1.31%. It also gave an activity (CYP1A1; replicate VI) of 1.7%, an activity (CYP1A1; replicate VII) of 0.51% and an activity (CYP1A1; replicate VIII) of 0.51%.
In the case of `COc1c2ccoc2cc2oc(C)cc(=O)c12` [visnagin], the “effect on DOX-induced cardiotoxicity” value [1] is listed as “cardioprotection”.
